Source: ChEMBL document CHEMBL1130355, “Trypanocidal activity and redox potential of heterocyclic- and 2-hydroxy-naphthoquinones” (1997)

Experiments:
Assay type in all cases: functional
Mus musculus [1] = species: Mus musculus; test: Tested for its ability to eliminate the infective trypomastigote form of Trypanosoma cruzi, Y strain present in blood of infected mice at the dose of 0.21 mM
Mus musculus [2] = species: Mus musculus; test: Tested for its ability to eliminate the infective trypomastigote form of Trypanosoma cruzi, Y strain present in blood of infected mice at the dose of 0.22 mM
Mus musculus [3] = species: Mus musculus; test: Tested for its ability to eliminate the infective trypomastigote form of Trypanosoma cruzi, Y strain present in blood of infected mice at the dose of 0.20 mM
Mus musculus [4] = species: Mus musculus; test: Tested for its ability to eliminate the infective trypomastigote form of Trypanosoma cruzi, Y strain present in blood of infected mice at the dose of 0.18 mM
Mus musculus [5] = species: Mus musculus; test: Tested for its ability to eliminate the infective trypomastigote form of Trypanosoma cruzi, Y strain present in blood of infected mice at the dose of 0.50 mM
Mus musculus [6] = species: Mus musculus; test: Tested for its ability to eliminate the infective trypomastigote form of Trypanosoma cruzi, Y strain present in blood of infected mice at the dose of 0.19 mM
Mus musculus [7] = species: Mus musculus; test: Tested for its ability to eliminate the infective trypomastigote form of Trypanosoma cruzi, Y strain present in blood of infected mice at the dose of 0.24 mM
Mus musculus [8] = species: Mus musculus; test: Tested for its ability to eliminate the infective trypomastigote form of Trypanosoma cruzi, Y strain present in blood of infected mice at the dose of 0.25 mM
Mus musculus [9] = species: Mus musculus; test: Tested for its ability to eliminate the infective trypomastigote form of Trypanosoma cruzi, Y strain present in blood of infected mice at the dose of 0.12 mM
Mus musculus [10] = species: Mus musculus; test: Tested for its ability to eliminate the infective trypomastigote form of Trypanosoma cruzi, Y strain present in blood of infected mice at the dose of 0.29 mM
Mus musculus [11] = species: Mus musculus; test: Tested for its ability to eliminate the infective trypomastigote form of Trypanosoma cruzi, Y strain present in blood of infected mice at the dose of 0.23 mM

## CC(C)c1cc2c(o1)C(=O)c1ccccc1C2=O
Mus musculus [1]
  Lysis: 88%

## CC/C=C/C1=C(O)C(=O)c2ccccc2C1=O
Mus musculus [2]
  Lysis: 68%

## COc1cccc2c1C(=O)c1ccsc1C2=O
Mus musculus [3]
  Lysis: 0%

## COc1ccc2c(c1OC)C(=O)c1sccc1C2=O
Mus musculus [4]
  Lysis: 19%

## O=C1C(=O)c2ccoc2-c2ccccc21
Mus musculus [5]
  Lysis: 100%

## COc1cccc2c1C(=O)c1sccc1C2=O
Mus musculus [3]
  Lysis: 26%

## COc1cccc2c1C(=O)c1ccoc1C2=O
Mus musculus [2]
  Lysis: 52%

## O=C1c2ccccc2C(=O)c2sc([N+](=O)[O-])cc21
Mus musculus [6]
  Lysis: 54%

## Cc1cc2c(o1)C(=O)c1ccccc1C2=O
Mus musculus [7]
  Lysis: 18%

## CCc1cc2c(o1)C(=O)c1ccccc1C2=O
Mus musculus [2]
  Lysis: 24%

## O=C1c2ccccc2C(=O)c2occc21
Mus musculus [8]
  Lysis: 33%

## CC(C)/C=C/C1=C(O)C(=O)c2ccccc2C1=O
Mus musculus [1]
  Lysis: 81%

## CCc1cc2c(o1)-c1ccccc1C(=O)C2=O
Mus musculus [2]
  Lysis: 94%

## COc1ccc2c(c1)C(=O)c1ccsc1C2=O
Mus musculus [3]
  Lysis: 9%

## COc1cc(OC)c2c(c1)C(=O)c1sccc1C2=O
Mus musculus [4]
  Lysis: 19%

## CC(C)c1cc2c(o1)-c1ccccc1C(=O)C2=O
Mus musculus [1]
  Lysis: 94%

## CC1(C)CCC2=C(O1)C(=O)c1ccccc1C2=O [ALPHA-LAPACHONE]
Mus musculus [1]
  Lysis: 48%

## CN(C)c1ccc(C(=C2C=CC(=[N+](C)C)C=C2)c2ccc(N(C)C)cc2)cc1.[Cl-] [GENTIAN VIOLET]
Mus musculus [9]
  Lysis: 100%

## CC(C)=CCC1=C(O)C(=O)c2ccccc2C1=O [LAPACHOL]
Mus musculus [1]
  Lysis: 65%

## CC1(C)CCC2=C(O1)c1ccccc1C(=O)C2=O [LAPACHONE]
Mus musculus [1]
  Lysis: 76%

## O=C1C=C(O)C(=O)c2ccccc21 [LAWSONE]
Mus musculus [10]
  Lysis: 76%

## O=C1c2ccccc2C(=O)c2sccc21 [THIOPHENONAPHTHOQUINONE]
Mus musculus [11]
  Lysis: 13%
